Source: ChEMBL document CHEMBL1134120, “Some 3-thioxo/alkylthio-1,2,4-triazoles with a substituted thiourea moiety as possible antimycobacterials” (Bioorg Med Chem Lett, 2001)
≈ marks a conversion by molar mass, not a printed value.

What was measured:
[1] = test system: Mycobacterium tuberculosis; test: Percent reduction of mycobacterial growth using Mycobacterium tuberculosis H37Rv at a concentration of 12.5 ug/mL; type: functional
[2] = test system: Mycolicibacterium fortuitum; test: In vitro anti-mycobacterial activity expressed as minimum inhibitory concentration against Mycobacterium fortuitum ATCC 6841; type: functional
[3] = test system: Mycobacterium tuberculosis; test: In vitro antituberculosis activity against Mycobacterium tuberculosis H37Rv using the BACTEC 12B medium using a micro dilution assay( MABA); type: functional
[4] = Tested in vitro for killing of Mycobacterium tuberculosis Erdman (ATCC 35801) in monolayers of mouse bone marrow macrophages and 90% reduction was reported using level 3 assay; type: functional; set-up: unit not given here
[5] = organism: Mus musculus; test: Tested in vitro for killing of Mycobacterium tuberculosis Erdman (ATCC 35801) in monolayers of mouse bone marrow macrophages and 99% reduction was reported using level 3 assay; type: functional; set-up: unit not given here
[6] = test system: Mycobacterium tuberculosis; test: Compound was evaluated for antituberculosis activity against Mycobacterium tuberculosis in level 2 assay; type: functional
[7] = Ratio between EC90 and MIC was reported; type: functional
[8] = test system: Mycobacterium tuberculosis; test: Concentration required for inhibition of growth of Mycobacterium tuberculosis in level 2 assay; type: functional, organism-based
[9] = test system: Mycobacterium tuberculosis; test: Compound was evaluated for antituberculosis activity against Mycobacterium tuberculosis in level 2 assay (performed using BACTEC in which MIC of RMP was found as 0.125 […]); type: functional
[10] = Selectivity index (IC50/MIC) was determined; type: functional

| SMILES | inhibition at 12.5 µg/mL [1] [%] | MIC [2] [µg/mL] | MIC [3] [µg/mL] | also measured |
| --- | --- | --- | --- | --- |
| C=CC/N=C(\S)Nc1ccc(-c2nnc(S)n2C2CCCCC2)cc1 | 35 | 32 (≈ 85.7 µM) | > 12.5 | – |
| C=CCNC(=S)Nc1ccc(-c2n[nH]c(=S)n2C)cc1 | 94 | 64 (≈ 210 µM) | 12.5 (≈ 40.9 µM) | EC90 [4]: 0.698; EC99 [5]: >100; MIC [6]: > 12.5 µg/mL; Ratio [7]: < 0.0558 |
| CNC(=S)Nc1ccc(-c2n[nH]c(=S)n2C)cc1 | 93 | 64 (≈ 229 µM) | < 12.5 | EC90 [4]: 0.371; EC99 [5]: >100; MIC [6]: > 12.5 µg/mL; EC90/MIC [7]: < 0.0297 |
| S=C(Nc1ccc(Cl)cc1)Nc1ccc(-c2n[nH]c(=S)n2-c2ccccc2)cc1 | 11 | 64 (≈ 146 µM) | > 12.5 | – |
| C=CCNC(=S)Nc1ccc(-c2n[nH]c(=S)n2-c2ccccc2)cc1 | 12 | 64 (≈ 174 µM) | > 12.5 | – |
| CCNC(=S)Nc1ccc(-c2n[nH]c(=S)n2-c2ccccc2)cc1 | 17 | 64 (≈ 180 µM) | > 12.5 | – |
| C=CCNC(=S)Nc1ccc(-c2n[nH]c(=S)n2CC=C)cc1 | 71 | 32 (≈ 96.5 µM) | > 12.5 | – |
| C=CCn1c(-c2ccc(NC(=S)NC)cc2)n[nH]c1=S | 0 | > 128 | > 12.5 | – |
| CCn1c(S)nnc1-c1ccc(N/C(S)=N/C2CCCCC2)cc1 | 10 | 64 (≈ 177 µM) | > 12.5 | – |
| C=CCn1c(-c2ccc(NC(=S)Nc3ccccc3)cc2)n[nH]c1=S | 0 | 32 (≈ 87.1 µM) | > 12.5 | – |
| NC[C@H]1O[C@H](O[C@H]2[C@H](O)[C@@H](O[C@H]3O[C@H](CO)[C@@H](O)[C@H](N)[C@H]3O)[C@H](N)C[C@@H]2N)[C@H](N)C[C@@H]1O [TOBRAMYCIN] | – | 32 (≈ 68.4 µM) | – | – |
| CO[C@H]1/C=C/O[C@@]2(C)Oc3c(C)c(O)c4c(O)c(c(/C=N/N5CCN(C)CC5)c(O)c4c3C2=O)NC(=O)/C(C)=C\C=C\[C@H](C)[C@H](O)[C@@H](C)[C@@H](O)[C@@H](C)[C@H](OC(C)=O)[C@@H]1C [RIFAMPIN] | – | 0.25 (≈ 0.304 µM) | – | EC90 [4]: 0.007; EC99 [5]: 0.451 |
| S=C(Nc1ccccc1)Nc1ccc(-c2n[nH]c(=S)n2-c2ccccc2)cc1 | 13 | > 128 | > 12.5 | – |
| C=CCNC(=S)Nc1ccc(-c2nnc(SCc3ccc(Cl)cc3Cl)n2-c2ccccc2)cc1 | 63 | > 128 | > 12.5 | – |
| C=CCNC(=S)Nc1ccc(-c2n[nH]c(=S)n2CCc2ccccc2)cc1 | 6 | 64 (≈ 162 µM) | > 12.5 | – |
| Cn1c(-c2ccc(NC(=S)Nc3ccccc3)cc2)n[nH]c1=S | 29 | 64 (≈ 187 µM) | > 12.5 | – |
| C=CCNC(=S)Nc1ccc(-c2n[nH]c(=S)n2CC)cc1 | 89 | 64 (≈ 200 µM) | > 12.5 | – |
| CNC(=S)Nc1ccc(-c2n[nH]c(=S)n2-c2ccccc2)cc1 | 27 | 64 (≈ 187 µM) | > 12.5 | – |
| Cn1c(S)nnc1-c1ccc(N/C(S)=N/C2CCCCC2)cc1 | 10 | 32 (≈ 92.1 µM) | > 12.5 | – |
| S/C(=N\C1CCCCC1)Nc1ccc(-c2nnc(S)n2-c2ccccc2)cc1 | 13 | 64 (≈ 156 µM) | > 12.5 | – |
| CNC(=S)Nc1ccc(-c2nnc(SCc3ccccc3)n2C)cc1 | 85 | > 128 | > 12.5 | – |
| S/C(=N\C1CCCCC1)Nc1ccc(-c2nnc(S)n2C2CCCCC2)cc1 | 12 | > 128 | > 12.5 | – |
| CCNC(=S)Nc1ccc(-c2n[nH]c(=S)n2C)cc1 | 90 | 64 (≈ 218 µM) | < 12.5 | EC90 [4]: 0.303; EC99 [5]: 48.65; MIC [6]: > 12.5 µg/mL; Ratio [7]: < 0.0242 |
| C=CCNC(=S)Nc1ccc(-c2nnc(SCc3ccc(Cl)cc3Cl)n2C)cc1 | 94 | > 128 | < 12.5 | IC50 [8]: > 10 µg/mL; MIC [9]: 6.25 µg/mL; Ratio [10]: > 1.6 |
